Reference: PMC8185074, “Anchor extension: a structure-guided approach to design cyclic peptides targeting enzyme active sites” (Nature Communications, 2021)
Peptide text beside a SMILES is read from it.

Tests used:
HDAC6 = molecular target: T1, HDAC6 (Homo sapiens, UniProt Q9UBN7); test: HDAC6 inhibition, full IC50 measurement (Reaction Biology; fluorogenic p53 peptide RHKK(Ac)AMC); assay type: biochemical
T1 construct: purchased Reaction Biology Corporation (assay run by the CRO)
T1 sequence (Q9UBN7 1-1215): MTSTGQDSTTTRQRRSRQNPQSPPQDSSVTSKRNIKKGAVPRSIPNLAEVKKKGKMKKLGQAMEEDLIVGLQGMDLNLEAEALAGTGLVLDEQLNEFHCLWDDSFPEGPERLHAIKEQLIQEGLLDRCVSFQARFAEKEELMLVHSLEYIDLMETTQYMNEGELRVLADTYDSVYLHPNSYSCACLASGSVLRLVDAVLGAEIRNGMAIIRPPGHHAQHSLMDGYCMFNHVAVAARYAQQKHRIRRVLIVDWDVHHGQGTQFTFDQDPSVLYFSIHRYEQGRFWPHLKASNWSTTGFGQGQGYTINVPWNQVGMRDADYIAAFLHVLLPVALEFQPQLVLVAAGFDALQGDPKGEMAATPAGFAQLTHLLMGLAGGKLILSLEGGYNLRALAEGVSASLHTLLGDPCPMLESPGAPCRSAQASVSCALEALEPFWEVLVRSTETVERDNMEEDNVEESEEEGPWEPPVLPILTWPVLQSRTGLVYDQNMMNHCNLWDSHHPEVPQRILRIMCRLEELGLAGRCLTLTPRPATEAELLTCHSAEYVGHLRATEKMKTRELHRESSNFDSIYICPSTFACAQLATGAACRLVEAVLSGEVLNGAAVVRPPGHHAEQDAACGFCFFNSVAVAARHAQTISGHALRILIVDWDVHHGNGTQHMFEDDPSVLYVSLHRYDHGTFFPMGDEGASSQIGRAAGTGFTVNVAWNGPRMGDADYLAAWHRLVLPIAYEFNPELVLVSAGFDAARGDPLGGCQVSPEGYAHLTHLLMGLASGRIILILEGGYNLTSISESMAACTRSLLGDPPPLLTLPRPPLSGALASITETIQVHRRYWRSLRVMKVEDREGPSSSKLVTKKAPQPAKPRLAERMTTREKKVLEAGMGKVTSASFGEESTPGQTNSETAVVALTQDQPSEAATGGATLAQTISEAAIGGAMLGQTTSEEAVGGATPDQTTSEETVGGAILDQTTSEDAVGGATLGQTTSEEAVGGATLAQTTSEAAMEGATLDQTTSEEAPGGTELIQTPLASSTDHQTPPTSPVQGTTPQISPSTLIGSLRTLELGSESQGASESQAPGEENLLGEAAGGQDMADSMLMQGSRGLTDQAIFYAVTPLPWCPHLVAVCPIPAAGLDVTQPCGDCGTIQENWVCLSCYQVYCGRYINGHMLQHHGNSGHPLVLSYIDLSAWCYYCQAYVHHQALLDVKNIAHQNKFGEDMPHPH
Procedure: (§1) The assay was performed using 50 μM fluorogenic peptide from p53 residues 379-382 [RHKK(Ac)AMC] in a base reaction buffer of 50 mM Tris-HCl at pH 8.0, 137 mM NaCl, 2.7 mM KCl, 1 mM MgCl2, and freshly added 1 mg/ml BSA and 1% DMSO. Peptides were first dissolved in DMSO and then added to the reaction mixture with the enzyme using acoustic technique, enough to reach the desired concentration for that assay point. Peptide concentrations were calculated based on mass of lyophilized peptide and its molecular weight. The substrate was then added and incubated for 1 hour at 30 °C in a sealed container. After the incubation, developer was added to stop the reaction and develop color. Kinetic measurements were then performed for 20 min with Envision with 5 min intervals (Ex/Em = 360/460 nm). The endpoint after plateau was taken for IC50 measurement.
(§2) In cases where duplicate measures are used, average data is reported in the main text or Supplementary Tables.

HDAC2 = molecular target: T2, HDAC2 (Homo sapiens, UniProt Q92769); test: HDAC2 inhibition, full IC50 measurement (Reaction Biology; fluorogenic p53 peptide RHKK(Ac)AMC); assay type: biochemical
T2 construct: purchased Reaction Biology Corporation (assay run by the CRO)
T2 sequence (Q92769 whole entry): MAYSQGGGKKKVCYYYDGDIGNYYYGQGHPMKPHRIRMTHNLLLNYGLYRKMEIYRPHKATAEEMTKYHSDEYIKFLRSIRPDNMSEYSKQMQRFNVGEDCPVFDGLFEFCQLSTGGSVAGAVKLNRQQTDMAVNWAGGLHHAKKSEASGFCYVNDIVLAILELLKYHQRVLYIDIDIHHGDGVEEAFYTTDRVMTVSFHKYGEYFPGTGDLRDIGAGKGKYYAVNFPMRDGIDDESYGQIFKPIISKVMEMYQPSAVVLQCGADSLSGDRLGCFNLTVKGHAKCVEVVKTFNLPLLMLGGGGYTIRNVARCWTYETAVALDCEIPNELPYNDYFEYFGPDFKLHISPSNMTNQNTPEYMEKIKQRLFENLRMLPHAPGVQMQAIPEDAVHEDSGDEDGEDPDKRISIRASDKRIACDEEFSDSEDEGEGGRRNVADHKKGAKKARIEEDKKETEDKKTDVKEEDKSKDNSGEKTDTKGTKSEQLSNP
Procedure: as §1, §2

What does the source list for `CCCC[C@H]1NC(=O)[C@H](CC(=O)O)NC(=O)[C@@H](CO)NC(=O)[C@@H](C)NC(=O)[C@H](CCCCN)NC(=O)[C@@H](CCCCN)NC(=O)[C@H](Cc2ccccc2)NC(=O)[C@H](CCCCCS)NC1=O` [des4.3.1.2, SHA-Phe-dLys-Lys-dAla-dSer-Asp-dNle] (HELM PEPTIDE1{D.[CCCC[C@@H](N[*:1])C(=O)[*:2]].[O=C([C@H](CCCCCS)N[*:1])[*:2]].F.[dK].K.[dA].[dS]}$PEPTIDE1,PEPTIDE1,1:R1-8:R2$$$V2.0)?
6-Selectivity: fold potency for HDAC6 over HDAC2 (HDAC6): > 100 fold; HDAC6 activity raw data (signal) (HDAC6; Conc. 1.00E-05 M, t1): 342990; HDAC6 activity raw data (signal) (HDAC6; Conc. 1.00E-05 M, t2): 304678; HDAC6 activity raw data (signal) (HDAC6; Conc. 1.11E-06 M, t1): 1091316; HDAC6 activity raw data (signal) (HDAC6; Conc. 1.11E-06 M, t2): 1078978; HDAC6 activity raw data (signal) (HDAC6; Conc. 1.23E-07 M, t1): 1593999; HDAC6 activity raw data (signal) (HDAC6; Conc. 1.23E-07 M, t2): 1556041; HDAC6 activity raw data (signal) (HDAC6; Conc. 1.37E-08 M, t1): 1690122; HDAC6 activity raw data (signal) (HDAC6; Conc. 1.37E-08 M, t2): 1641196; HDAC6 activity raw data (signal) (HDAC6; Conc. 1.52E-09 M, t1): 1700998; HDAC6 activity raw data (signal) (HDAC6; Conc. 1.52E-09 M, t2): 1770848; HDAC6 activity raw data (signal) (HDAC6; Conc. 3.33E-06 M, t1): 689811; HDAC6 activity raw data (signal) (HDAC6; Conc. 3.33E-06 M, t2): 662211; HDAC6 activity raw data (signal) (HDAC6; Conc. 3.70E-07 M, t1): 1440305; HDAC6 activity raw data (signal) (HDAC6; Conc. 3.70E-07 M, t2): 1367836; HDAC6 activity raw data (signal) (HDAC6; Conc. 4.12E-08 M, t1): 1630143; HDAC6 activity raw data (signal) (HDAC6; Conc. 4.12E-08 M, t2): 1649164; HDAC6 activity raw data (signal) (HDAC6; Conc. 4.57E-09 M, t1): 1710532; HDAC6 activity raw data (signal) (HDAC6; Conc. 4.57E-09 M, t2): 1671153; HDAC6 activity raw data (signal) (HDAC6; Conc. 5.08E-10 M, t1): 1797804; HDAC6 activity raw data (signal) (HDAC6; Conc. 5.08E-10 M, t2): 1739375; HDAC2 activity raw data (signal) (HDAC2; Conc. 1.00E-05 M, t1): 1148842; HDAC2 activity raw data (signal) (HDAC2; Conc. 1.00E-05 M, t2): 1124925; HDAC2 activity raw data (signal) (HDAC2; Conc. 1.11E-06 M, t1): 1654730; HDAC2 activity raw data (signal) (HDAC2; Conc. 1.11E-06 M, t2): 1704574; HDAC2 activity raw data (signal) (HDAC2; Conc. 1.23E-07 M, t1): 1694685; HDAC2 activity raw data (signal) (HDAC2; Conc. 1.23E-07 M, t2): 1708262; HDAC2 activity raw data (signal) (HDAC2; Conc. 1.37E-08 M, t1): 1883329; HDAC2 activity raw data (signal) (HDAC2; Conc. 1.37E-08 M, t2): 1685214; HDAC2 activity raw data (signal) (HDAC2; Conc. 1.52E-09 M, t1): 1920222; HDAC2 activity raw data (signal) (HDAC2; Conc. 1.52E-09 M, t2): 1770203; HDAC2 activity raw data (signal) (HDAC2; Conc. 3.33E-06 M, t1): 1489645; HDAC2 activity raw data (signal) (HDAC2; Conc. 3.33E-06 M, t2): 1397108; HDAC2 activity raw data (signal) (HDAC2; Conc. 3.70E-07 M, t1): 1733657; HDAC2 activity raw data (signal) (HDAC2; Conc. 3.70E-07 M, t2): 1639218; HDAC2 activity raw data (signal) (HDAC2; Conc. 4.12E-08 M, t1): 1743081; HDAC2 activity raw data (signal) (HDAC2; Conc. 4.12E-08 M, t2): 1732768; HDAC2 activity raw data (signal) (HDAC2; Conc. 4.57E-09 M, t1): 1828637; HDAC2 activity raw data (signal) (HDAC2; Conc. 4.57E-09 M, t2): 1698186; HDAC2 activity raw data (signal) (HDAC2; Conc. 5.08E-10 M, t1): 1916889; HDAC2 activity raw data (signal) (HDAC2; Conc. 5.08E-10 M, t2): 1862597
